Data from US8809343B2, “Pyrimidine derivative, preparation method and use thereof” (Fudan University, priority 2008, dated 2014).
Where two headings read alike, the source gives them in different places.

How the values were obtained:
HIV-1 IIIB strain = experiment: Anti-HIV activity: protection of HIV-infected MT-4 cells from virus-induced cell lesions; format: cell-based
Procedure: (§1) Anti-virus activity of cells in vitro was determined by Rega Institute for Medical of […] Katholleke University, consisting mainly: inhibitory activity towards HIV-infected MT-4 cells and cell toxicity. The method is described below: exert the compound on the HIV-infected ME-4 cells, and determine the protection of the drug on the cell lesions induced by HIV at varied HIV-infection intervals, calculate the half effective concentration IC50, the required concentration that protect 50% of cells from cell lesions induced by HIV. Toxicity determination is carried out in parallel with anti-HIV activity experiments, also in the cultured MT-4 cells, determine the CC50, the concentration that leads 50% of uninfected cells to cell lesions, and calculate the selectivity index SI=CC50/IC50 with the MTT method.
(§2) Anti-HIV activity of various compounds is monitored by the inhibitory efficiency of drugs on the cell lesions induced by HIV. Carry out cell culture with MT-4 cells. The adopted virus strains are HIV-1 IIIB strain and drug-resistant viral strain of […].
(§3) The detailed operation is as follows: the compound is dissolved with DMSO or water and diluted with phosphate buffer saline, 3×10^5 MT-4 cells are cultured with 100 μL various concentrations of compounds for 1 h, then 100 μL suitable virus dilution is added to the compound, and the cells are cultured at 37° C. for 1 h. After being washed for 3 times, the cells are suspended again in the culture media containing or not compounds individually. Subsequently, the cells are transferred to the atmosphere containing 5% CO2 and cultured for 7 days at 37° C., and culture media containing or not compounds are used to replace or supplement the culture solution on the third day after infection. Kinds of culture conditions should be duplicated. The cell lesions caused by virus are monitored with reverse light microscopy everyday. Typically, the virus dilution applied in the present experiments generally cause cell lesion on the fifth day after infection. […] It should be emphasized that, when the compound is poorly water-soluble and can only be dissolved in DMSO, the ratio of DMSO to water is generally below 10% (the final concentration of DMSO in MT-4 cell culture media is smaller than 2%). Because DMSO can influence the anti-virus activity of the tested compounds, blank tests on the solution containing the same concentration of DMSO should be conducted in parallel. Additionally, the final concentration of DMSO is far below the concentration required to influence the replication of HIV-1 in T cells.

MT-4 cells = experiment: Cell toxicity in uninfected MT-4 cells (MTT method); format: cell-based
Procedure: as §1, §3

[1] = test system: drug-resistant viral strain of L103N+Y181C; experiment: Anti-HIV activity in MT-4 cells, drug-resistant viral strain; format: cell-based, HIV-1; conditions: MT-4 cells, Table 1; read-out: EC50 103N + 181C
Procedure: as §1, §2, §3

[2] = Cell toxicity in uninfected MT-4 cells (MTT method); format: cell-based; conditions: human
Procedure: as §1, §3

[3] = MT-4 cells, Table 1, read-out: EC50 HIV-1(IIIB)
[4] = HIV-1 IIIB, MT-4 cells, Table 3
[5] = Human immunodeficiency virus 1, IIIB, MT4, read-out: EC50 HIV-1(IIIB)
[6] = MT-4 cells, Table 3, read-out: EC50 HIV-1(IIIB)
[7] = Human immunodeficiency virus 1, IIIB, MT4, MT-4 cells, Table 1, read-out: EC50 HIV-1(IIIB)
[8] = Human immunodeficiency virus 1, IIIB, MT4, MT-4 cells, Table 2, read-out: EC50 WT(IIIB)

Cc1cnc(Nc2ccc(C#N)cc2)nc1Oc1cccc2cccnc12 [Compound 5]
EC50 (HIV-1 IIIB strain; [3]): 0.0058 µM
CC50 (MT-4 cells; Table 1): 19.9 µM

Cc1c(Cl)nc(Nc2ccc(C#N)cc2)nc1Oc1cccc2cccnc12 [Compound 6]
EC50 (HIV-1 IIIB strain; [3]): 0.0257 µM
CC50 (MT-4 cells; Table 1): 44.7 µM

CNc1nc(Nc2ccc(C#N)cc2)nc(Oc2cccc3cccnc23)c1C [Compound 7]
EC50 (HIV-1 IIIB strain; [3]): 0.0158 µM
CC50 (MT-4 cells; Table 1): 36.5 µM

COc1nc(Nc2ccc(C#N)cc2)nc(Oc2cccc3cccnc23)c1C [Compound 8]
EC50 (HIV-1 IIIB strain; [3]): 0.0178 µM
CC50 (MT-4 cells; Table 1): 31.8 µM

CC(C)c1c(Cl)nc(Nc2ccc(C#N)cc2)nc1Oc1ccc2cc(C#N)ccc2c1 [Compound 9]
EC50 (HIV-1 IIIB strain; [3]): 0.05 µM
EC50 [1]: 3.36 µM
CC50 (MT-4 cells; Table 1): 436 µM

Cc1c(Oc2ccnc(Nc3ccc(C#N)cc3)n2)ccc2ccccc12 [Compound 10]
EC50 (HIV-1 IIIB strain; [3]): 0.00346 µM
EC50 [1]: 11 µM
CC50 (MT-4 cells; Table 1): 114 µM

Cc1cc2ccccc2cc1Oc1ccnc(Nc2ccc(C#N)cc2)n1 [Compound 11]
EC50 (HIV-1 IIIB strain; [3]): 0.0023 µM
EC50 [1]: > 70.9 µM
CC50 (MT-4 cells; Table 1): 71.2 µM

Cc1cc2ccccc2c(C)c1Oc1ccnc(Nc2ccc(C#N)cc2)n1 [Compound 12]
EC50 (HIV-1 IIIB strain; [3]): 0.0041 µM
EC50 [1]: 1.17 µM
CC50 (MT-4 cells; Table 1): 313 µM

N#Cc1ccc(Nc2nccc(Oc3ccc4cc(Br)ccc4c3Br)n2)cc1 [Compound 13]
EC50 (HIV-1 IIIB strain; [3]): 0.0046 µM
EC50 [1]: > 50.4 µM
CC50 (MT-4 cells; Table 1): 51.1 µM

N#Cc1ccc(Nc2nccc(Oc3ccc4cc(C#N)ccc4c3)n2)cc1 [Compound 14]
EC50 (HIV-1 IIIB strain; [3]): 0.0033 µM
EC50 [1]: 6.3 µM
CC50 (MT-4 cells; Table 1): 67.8 µM

Cc1ccccc1Oc1nc(Nc2ccc(C#N)cc2)nc2ccccc12 [Compound 25]
SI (Selectivity index, the ratio of CC50/IC50) (HIV-1 IIIB strain; [4]): 1148
EC50 (HIV-1 IIIB strain; [5]): 0.0937 µM
CC50 at 7 days ([2]; uninfected MT-4 cells, Table 3): 108 µM

N#Cc1ccc(Nc2nc(Oc3ccc(Br)cc3)c3ccccc3n2)cc1 [Compound 26]
SI (Selectivity index, the ratio of CC50/IC50) (HIV-1 IIIB strain; [4]): 894
EC50 (HIV-1 IIIB strain; [5]): 0.263 µM
CC50 at 7 days ([2]; uninfected MT-4 cells, Table 3): 235 µM

Cc1cccc(Oc2nc(Nc3ccc(C#N)cc3)nc3ccccc23)c1 [Compound 27]
SI (Selectivity index, the ratio of CC50/IC50) (HIV-1 IIIB strain; [4]): >563
EC50 (HIV-1 IIIB strain; [5]): 0.625 µM
CC50 at 7 days ([2]; uninfected MT-4 cells, Table 3): > 352 µM

COc1ccc(Oc2nc(Nc3ccc(C#N)cc3)nc3ccccc23)cc1 [Compound 28]
SI (Selectivity index, the ratio of CC50/IC50) (HIV-1 IIIB strain; [4]): >1810
EC50 (HIV-1 IIIB strain; [5]): 0.187 µM
CC50 at 7 days ([2]; uninfected MT-4 cells, Table 3): > 3400 µM

COc1ccccc1Oc1nc(Nc2ccc(C#N)cc2)nc2ccccc12 [Compound 29]
SI (Selectivity index, the ratio of CC50/IC50) (HIV-1 IIIB strain; [4]): >6186
EC50 (HIV-1 IIIB strain; [5]): 0.03 µM
CC50 at 7 days ([2]; uninfected MT-4 cells, Table 3): > 186 µM

N#Cc1ccc(Nc2nc(Oc3ccccc3)c3ccccc3n2)cc1 [Compound 30]
SI (Selectivity index, the ratio of CC50/IC50) (HIV-1 IIIB strain; [4]): >411
EC50 (HIV-1 IIIB strain; [5]): 0.887 µM
CC50 at 7 days ([2]; uninfected MT-4 cells, Table 3): > 365 µM

Cc1ccc(Oc2nc(Nc3ccc(C#N)cc3)nc3ccccc23)cc1 [Compound 31]
SI (Selectivity index, the ratio of CC50/IC50) (HIV-1 IIIB strain; [4]): 8091
EC50 (HIV-1 IIIB strain; [5]): 0.042 µM
CC50 at 7 days ([2]; uninfected MT-4 cells, Table 3): 340 µM

Cc1cc(Br)cc(Br)c1Oc1nc(Nc2ccc(C#N)cc2)nc2ccccc12 [Compound 32]
SI (Selectivity index, the ratio of CC50/IC50) (HIV-1 IIIB strain; [4]): 8917
EC50 (HIV-1 IIIB strain; [5]): 0.0176 µM
CC50 at 7 days ([2]; uninfected MT-4 cells, Table 3): 157 µM

Cc1cc(C#N)ccc1Oc1nc(Nc2ccc(C#N)cc2)nc2ccccc12 [Compound 33]
EC50 (HIV-1 IIIB strain; [6]): 0.028 µM
CC50 (MT-4 cells; Table 3): > 333 µM

N#Cc1ccc(Nc2nc(Oc3c(Br)cc(Br)cc3Br)c3ccccc3n2)cc1 [Compound 34]
EC50 (HIV-1 IIIB strain; [6]): 0.023 µM
CC50 (MT-4 cells; Table 3): 71 µM

Cc1cc(Br)c(Oc2nc(Nc3ccc(C#N)cc3)nc3ccccc23)c(Br)c1 [Compound 35]
EC50 (HIV-1 IIIB strain; [6]): 0.015 µM
CC50 (MT-4 cells; Table 3): 23.4 µM

Cc1cc(C)c(Oc2nc(Nc3ccc(C#N)cc3)nc3ccccc23)c(C)c1 [Compound 36]
EC50 (HIV-1 IIIB strain; [6]): 0.023 µM
CC50 (MT-4 cells; Table 3): > 34.1 µM

N#Cc1ccc(Nc2nc(Oc3ccc(Cl)cc3Cl)c3ccccc3n2)cc1 [Compound 37]
EC50 (HIV-1 IIIB strain; [6]): 0.028 µM
CC50 (MT-4 cells; Table 3): 114 µM

N#Cc1ccc(Nc2nc(Oc3ccc(F)cc3)c3ccccc3n2)cc1 [Compound 38]
EC50 (HIV-1 IIIB strain; [6]): 0.156 µM
CC50 (MT-4 cells; Table 3): 310 µM

N#Cc1ccc(Nc2nc(Oc3ccccc3Cl)c3ccccc3n2)cc1 [Compound 39]
EC50 (HIV-1 IIIB strain; [6]): 0.057 µM
CC50 (MT-4 cells; Table 3): 343 µM

N#Cc1ccc(Nc2nc(Oc3ccc(Cl)cc3)c3ccccc3n2)cc1 [Compound 40]
EC50 (HIV-1 IIIB strain; [6]): 0.167 µM
CC50 (MT-4 cells; Table 3): > 396 µM

COc1cc(C#N)cc(OC)c1Oc1nc(Nc2ccc(C#N)cc2)nc2ccccc12 [Compound 41]
EC50 (HIV-1 IIIB strain; [6]): 0.0022 µM
CC50 (MT-4 cells; Table 3): > 93.1 µM

N#Cc1ccc(Nc2nc(Oc3c(Cl)cc(Cl)cc3Cl)c3ccccc3n2)cc1 [Compound 42]
EC50 (HIV-1 IIIB strain; [6]): 0.0035 µM
CC50 (MT-4 cells; Table 3): 244 µM

Cc1cccc(C)c1Oc1nc(Nc2ccc(C#N)cc2)nc2ccccc12 [Compound 43]
EC50 (HIV-1 IIIB strain; [6]): 0.046 µM
CC50 (MT-4 cells; Table 3): > 640 µM

N#Cc1ccc(Nc2nc(Sc3ccccc3)c3ccccc3n2)cc1 [Compound 44]
EC50 (HIV-1 IIIB strain; [6]): 0.752 µM
CC50 (MT-4 cells; Table 3): 494 µM

Cc1cc(C#N)cc(C)c1Oc1nc(Nc2ccc(C#N)cc2)nc2ccccc12 [Compound 45]
EC50 (HIV-1 IIIB strain; [6]): 0.0036 µM
CC50 (MT-4 cells; Table 3): > 172 µM

CCOc1cc(C#N)cc(OCC)c1Oc1nc(Nc2ccc(C#N)cc2)nc2ccccc12 [Compound 46]
EC50 (HIV-1 IIIB strain; [6]): 0.0029 µM
CC50 (MT-4 cells; Table 3): > 99.3 µM

CCCOc1cc(C#N)cc(OCC)c1Oc1nc(Nc2ccc(C#N)cc2)nc2ccccc12 [Compound 47]
EC50 (HIV-1 IIIB strain; [6]): 0.0032 µM
CC50 (MT-4 cells; Table 3): > 66.7 µM

COc1cc(C#N)cc(Cl)c1Oc1nc(Nc2ccc(C#N)cc2)nc2ccccc12 [Compound 48]
EC50 (HIV-1 IIIB strain; [6]): 0.0056 µM
CC50 (MT-4 cells; Table 3): > 173 µM

CCOc1cc(C#N)cc(Cl)c1Oc1nc(Nc2ccc(C#N)cc2)nc2ccccc12 [Compound 49]
EC50 (HIV-1 IIIB strain; [6]): 0.0059 µM
CC50 (MT-4 cells; Table 3): > 594 µM

COc1cc(C#N)cc(OC(C)C)c1Oc1nc(Nc2ccc(C#N)cc2)nc2ccccc12 [Compound 50]
EC50 (HIV-1 IIIB strain; [6]): 0.0067 µM
CC50 (MT-4 cells; Table 3): > 65.8 µM

N#Cc1ccc(Nc2nc(S(=O)(=O)c3ccccc3)c3ccccc3n2)cc1 [Compound 51]
EC50 (HIV-1 IIIB strain; [6]): 0.589 µM
CC50 (MT-4 cells; Table 3): > 215 µM

CCOc1cc(C#N)cc(OC)c1Oc1nc(Nc2ccc(C#N)cc2)nc2ccccc12 [Compound 52]
EC50 (HIV-1 IIIB strain; [6]): 0.0026 µM
CC50 (MT-4 cells; Table 3): > 130 µM

Cc1cc(C)c(Oc2nc(Nc3ccc(C#N)cc3)nc3ccc(Cl)cc23)c(C)c1 [Compound 54]
EC50 (HIV-1 IIIB strain; [6]): 0.0018 µM
CC50 (MT-4 cells; Table 3): 147 µM

Cc1cn([C@H]2C[C@H](N=[N+]=[N-])[C@@H](CO)O2)c(=O)[nH]c1=O [DDN/AZT, reference compound]
EC50 (HIV-1 IIIB strain; [6]): 0.00517 µM
CC50 (MT-4 cells; Table 3): > 93.5 µM

CC(C)Nc1cccnc1N1CCN(C(=O)c2cc3cc(NS(C)(=O)=O)ccc3[nH]2)CC1 [DLV, Delavirdine, reference compound]
SI (Selectivity index, the ratio of CC50/IC50) (HIV-1 IIIB strain; HIV-1 IIIB, MT-4 cells, Table 1): 12
EC50 (HIV-1 IIIB strain; [7]): 0.072 µM
EC50 (HIV-1 IIIB strain; [8]): 0.072 µM
SI (Selectivity index, the ratio of CC50/IC50) (HIV-1 IIIB strain; WT(IIIB), Table 2): 12
CC50 at 7 days ([2]; uninfected MT-4 cells, Table 1): 0.86 µM

Cc1ccnc2c1NC(=O)c1cccnc1N2C1CC1 [NVP, nevirapine, reference compound]
EC50 (HIV-1 IIIB strain; [7]): 0.0751 µM
EC50 (HIV-1 IIIB strain; [8]): 0.0751 µM
CC50 at 7 days ([2]; Table 1): 5.41 µM
CC50 at 7 days ([2]; Table 3): > 15 µM
